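Cultured in 96-well plates, cells were exposed to test compound for 48 hours across five concentrations. Here, GI50 denotes the concentration required for 50% inhibition of growth.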 The source made the active and inactive calls. No stated cut-off is given here; in the data, active = GI50 up to about 1.1 µM and inactive = higher.
Tests used:
Test in all cases: inhibition of tumour cell growth, NCI panel, 48 h
[1] = tested on: A549
[2] = tested on: CCRF-CEM
[3] = tested on: HOP-62
[4] = tested on: IGROV-1
[5] = tested on: KM12
[6] = tested on: NCI-H460
[7] = tested on: OVCAR-5
[8] = tested on: SK-MEL-2
[9] = tested on: SK-OV-3
[10] = tested on: SNB-19
[11] = tested on: UACC-62
[12] = tested on: HT-29
[13] = tested on: NCI-H226
[14] = tested on: CAKI-1
[15] = tested on: DU-145
[16] = tested on: MDA-MB-435
[17] = tested on: MDA-N
[18] = tested on: NCI/ADR-RES

Measured: GI50

COc1cc2c(cc1OC)C(=O)N1CCCC1C(=O)S2 (stereo not drawn)
inactive: [1] > 100 µM | [2] > 100 µM | [3] > 100 µM | [4] 19.9 µM | [5] > 100 µM | [6] > 100 µM | [7] > 100 µM | [8] > 100 µM | [9] > 100 µM | [10] > 100 µM | [11] 35.6 µM

CCC(CC)n1c(C)nc2c1C(=O)c1ccccc1C2=O
inactive: [1] 35.3 µM | [2] 42.6 µM | [3] 33.4 µM | [12] 33.2 µM | [4] 71.9 µM | [5] 36.9 µM | [13] 72.8 µM | [6] 20.7 µM | [8] 27.6 µM | [9] > 100 µM | [10] 71.1 µM | [11] 10.3 µM

COc1ccc([C@H]2CC(=O)NCCCCN2)cc1
inactive: [1] > 100 µM | [14] > 100 µM | [2] > 100 µM | [3] > 100 µM | [12] > 100 µM | [4] > 100 µM | [5] > 100 µM | [13] > 100 µM | [6] > 100 µM | [7] > 100 µM | [8] > 100 µM | [9] > 100 µM | [10] > 100 µM | [11] > 100 µM

O=C1CCC(=O)c2c1c(O)c1ccncc1c2O
inactive: [1] 20.4 µM | [14] 23.9 µM | [2] 14.8 µM | [3] 30.9 µM | [12] 6.62 µM | [4] 15 µM | [5] 16.3 µM | [13] 20.6 µM | [6] 15.1 µM | [7] 23 µM | [8] 13.6 µM | [9] 36.5 µM | [10] 26 µM | [11] 6.4 µM

CCCCCCCCOCC1S(=O)(=O)OCCOS1(=O)=O
inactive: [1] > 100 µM | [14] > 100 µM | [2] > 100 µM | [15] > 100 µM | [3] > 100 µM | [12] > 100 µM | [4] > 100 µM | [16] > 100 µM | [17] > 100 µM | [13] > 100 µM | [6] > 100 µM | [18] > 100 µM | [7] > 100 µM | [8] > 100 µM | [9] > 100 µM | [10] > 100 µM | [11] > 100 µM

Cc1ccc(/N=N/c2ccc(N(CCC#N)CCC#N)cc2C)c(Br)c1
inactive: [1] 21.5 µM | [14] 2.38 µM | [2] 5.85 µM | [3] 16.6 µM | [12] 3.53 µM | [4] 37.4 µM | [5] 3.5 µM | [13] 17.2 µM | [7] 56 µM | [8] 16.9 µM | [9] 10.3 µM | [10] 32.4 µM | [11] 13.5 µM

CC1COS(=O)O1 (stereo not drawn)
inactive: [1] > 100 µM | [14] > 100 µM | [2] > 100 µM | [3] > 100 µM | [12] > 100 µM | [4] > 100 µM | [5] > 100 µM | [13] > 100 µM | [6] > 100 µM | [7] > 100 µM | [8] > 100 µM | [9] > 100 µM | [10] > 100 µM | [11] > 100 µM

O=C1OC(=O)c2c1c(-c1ccccc1)cn2-c1ccc(Cl)cc1
inactive: [1] 83 µM | [2] 35.6 µM | [3] 14.6 µM | [12] > 100 µM | [4] 24.7 µM | [5] 86.1 µM | [13] > 100 µM | [6] > 100 µM | [7] > 100 µM | [8] > 100 µM | [9] > 100 µM | [10] > 100 µM | [11] 1.64 µM

N/N=C(\Cc1ccccc1)NN=C(N)N
inactive: [1] > 100 µM | [14] > 100 µM | [2] 26.5 µM | [12] > 100 µM | [4] > 100 µM | [5] > 100 µM | [13] > 100 µM | [6] > 100 µM | [7] > 100 µM | [8] > 100 µM | [9] > 100 µM | [11] > 100 µM

COc1nc(NC2OC(COC(C)=O)C(OC(C)=O)C(OC(C)=O)C2OC(C)=O)c(-c2csc(N)n2)c(=O)n1C (stereo not drawn)
inactive: [1] 55 µM | [14] 32.3 µM | [2] > 100 µM | [3] 29.6 µM | [12] > 100 µM | [4] > 100 µM | [5] > 100 µM | [13] 37.9 µM | [6] 73.1 µM | [7] > 100 µM | [8] 21.5 µM | [9] > 100 µM | [10] > 100 µM | [11] 33.7 µM

NC(=O)N/N=C(\CC1OC(=O)c2ccccc21)c1ccco1 (stereo not drawn)
inactive: [1] > 100 µM | [14] > 100 µM | [2] > 100 µM | [12] > 100 µM | [4] > 100 µM | [5] > 100 µM | [13] > 100 µM | [6] > 100 µM | [7] > 100 µM | [8] > 100 µM | [9] > 100 µM | [10] > 100 µM | [11] > 100 µM

N#C/C(=C\c1ccc2ccccc2c1)c1ccccc1
inactive: [14] 17.8 µM | [2] 32.5 µM | [3] 26.6 µM | [12] 26.7 µM | [4] 14.9 µM | [5] 27.7 µM | [13] 53.2 µM | [6] 17.1 µM | [7] 98.2 µM | [8] 25.8 µM | [9] 26.3 µM | [11] 13.1 µM

COC(=O)C1=NC(=S)NC(c2ccccc2)C1c1nc2ccccc2o1 (stereo not drawn)
inactive: [1] > 50 µM | [14] > 50 µM | [2] > 50 µM | [3] > 50 µM | [12] > 50 µM | [4] > 50 µM | [5] > 50 µM | [13] > 50 µM | [6] > 50 µM | [7] > 50 µM | [8] > 50 µM | [9] > 50 µM | [10] > 50 µM | [11] > 50 µM

Cc1csc(CCC(N)C(=O)O)n1 (stereo not drawn)
inactive: [1] > 100 µM | [14] > 100 µM | [2] > 100 µM | [12] > 100 µM | [4] > 100 µM | [5] > 100 µM | [13] > 100 µM | [6] > 100 µM | [9] > 100 µM | [11] > 100 µM

CN(C(=O)C12C3C4C1C1C2C3C41C(N)=O)C(C)(C)C (stereo not drawn)
inactive: [1] > 100 µM | [14] > 100 µM | [2] > 100 µM | [12] > 100 µM | [4] > 100 µM | [5] > 100 µM | [13] > 100 µM | [6] > 100 µM | [7] > 100 µM | [9] > 100 µM | [10] > 100 µM | [11] > 100 µM

Cc1ccc(NC(=O)CCC(CC(=O)C(C)(C)C)=NNC(=O)C(=O)NN)cc1C
inactive: [1] > 100 µM | [14] > 100 µM | [2] > 100 µM | [3] > 100 µM | [12] > 100 µM | [4] > 100 µM | [5] > 100 µM | [13] > 100 µM | [6] > 100 µM | [7] > 100 µM | [8] > 100 µM | [9] > 100 µM | [10] > 100 µM | [11] > 100 µM

O=C(/C=C/c1ccc(Cl)c(Cl)c1)c1cccc2ccccc12
inactive: [1] 15.7 µM | [14] 7.36 µM | [2] 2.53 µM | [3] 17 µM | [12] 3.59 µM | [4] 11.7 µM | [5] 4.4 µM | [13] 14.4 µM | [6] 5.81 µM | [7] 13.8 µM | [9] 20.3 µM | [10] 6.85 µM | [11] 12.9 µM

COc1ccc(/C=C/C(=O)c2sc(N)nc2C)cc1
inactive: [1] > 100 µM | [14] > 100 µM | [2] > 100 µM | [3] > 100 µM | [12] > 100 µM | [4] > 100 µM | [5] > 100 µM | [6] > 100 µM | [7] > 100 µM | [8] > 100 µM | [9] > 100 µM | [10] > 100 µM | [11] > 100 µM

CC(=O)OCC1=CC2CCC3C(C)(CCC[C@]3(C)COC(C)=O)C23CC[C@H]1C3 (stereo partly drawn)
inactive: [1] 64 µM | [14] 39.6 µM | [2] 27.9 µM | [3] 75.9 µM | [12] 35.8 µM | [4] 99.3 µM | [5] 33.7 µM | [13] 68.1 µM | [6] > 100 µM | [7] > 100 µM | [8] 33.8 µM | [9] 64.7 µM | [10] 68.4 µM | [11] 36.1 µM

CCCCCCCCCCCCn1[nH]c(C)c(C(=S)SCCCCCCCC)c1=O
inactive: [1] 69.5 µM | [14] 32.1 µM | [2] 28.1 µM | [3] 50.1 µM | [12] 76.2 µM | [4] > 91.6 µM | [5] 70.1 µM | [13] 23.4 µM | [6] 61.4 µM | [7] > 100 µM | [8] > 100 µM | [9] > 93.1 µM | [10] > 82.8 µM | [11] 21.1 µM
